Columns and labels:
collagen = test: Sirius red collagen staining, human fibroblasts; format: cell-based; details: for collagen expression level of fibroblasts: FIG. 5(B); for collagen expression level per human fibroblast: FIG. 5(C)
Procedure: Sirius red collagen staining is performed to analyze the effect on the collagen expression of skin cells treated with 6-DG 6-DG of different concentration is added to a 24-well culture dish cultured with human fibroblasts. Medium in the dish is removed and the fibroblasts are washed with PBS twice. 100 μl Sirius Red is added to each well of the dish and incubated at room temperature for 1 hr. After removing the unstained Sirius Red, the fibroblasts are washed with 100 μl 0.1N HCl for at least five times, and then 100 μl 0.1N NaOH is used to extract the stained Sirius Red. Finally, the OD value of the extracted stained Sirius Red is calculated by 540 nm-wavelength light. As the described in “BACKGROUND OF THE INVENTION,” it is said that PMA, an activator for protein kinase C, phosphorylates JNK and ERK to produce MMP-1, and inhibits TIMP-1. With regard to the effect on the collagen expression of skin cells treated with 6-DG, the human fibroblasts are incubated with 20 ng/ml PMA prior to being incubated with 6-DG.

c-Jun and ERK = test: Western blotting, human fibroblasts, phosphorylation; format: cell-based; details: compared with cells only treated with PMA
Procedure: Signal transduction of skin cells treated with 6-DG is studied. Firstly, 6-DG of different concentration is incubated with 1×10^6 human fibroblasts. After being incubated for 24 hr, the human fibroblasts are washed twice with phosphate-buffered saline (PBS), and then lysed by a lysis buffer containing 50 mM Tris-HCl, pH7.5, 137 mM sodium chloride, 1 mM EDTA, 1% Nonidet P-40, 10% glycerol, 0.1 mM sodium orthovanadate, 10 mM sodium pyrophosphate, 20 mM β-glycerophosphate, 50 mM sodium fluoride, 1 mM phenylmethysulfonyl fluoride, 2 mM leupeptin, and 2 μg/ml aprotinin. A cell extract having the lysed human fibroblasts is separated by a centrifugal force of 10,000 g at 4° C., and supernant of the cell extract is collected for determining protein concentration using Bicinchoninic acid protein assay kit (Pierce, Rockford, Ill., USA). Equal concentration of protein in the supernant is separated by SDS-PAGE, and then blotted to a PVDF membrane (PALL Life Science, Ann Arbor, Mich., USA). After being blocked for 1 hr in phosphate-buffered saline & tween (PBST) containing 5% non-fat milk, primary antibodies are added to the membrane. The membrane is washed with PBST twice, and next secondary antibodies against the primary antibodies are added to the membrane. Finally, signals on the membrane are visualized by enhanced chemiluminescence substrate (PerkinElmer, USA). […]

MMP-1 [1] = test: Collagen zymography, MMP-1 activity of human fibroblasts; format: cell-based
Procedure: Collagen zymography is performed to analyze the effect on the MMP-1 activity of skin cells treated with 6-DG. After electrophoresis of the foregoing lysed cell extract in SDS-PAGE containing 0.1% collagen, the SDS-PAGE is reacted with 2.5% Triton X-100 to remove SDS and make the protein of the lysed extract folded, and then incubated with a Tris-base buffer containing NaCl, CaCl2, and ZnCl2. Finally, this gel is stained with Coomassie Brilliant Blue R250, and the signal at 52 kDa […] position on the gel is calculated by Gel Pro v4.0 software (Media Cybernetics, Silver Spring, Md., USA).
“BACKGROUND OF THE INVENTION” of the content is said that PMA, an activator for protein kinase C, phosphorylates JNK and ERK to produce MMP-1, and inhibits TIMP-1. For confirming the effect on the MMP-1 activity of skin cells treated with 6-DG, the human fibroblasts are incubated with 20 ng/ml PMA prior to being treated with 6-DG.

TGF-β [2] = test: ELISA, growth factor expression in conditioned medium of fibroblasts; format: cell-based, human; details: 24 hr, medium supernatant, mean ± SD
Procedure: (§1) Skin cells are cultured following the method provided in Exp Dermatol 2011; 20: 242-8. Human skin fibroblasts are derived from Chung-Ho Memorial Hospital, Kaohsiung Medical University, Taiwan, ROC, and incubated in Dulbecco's Modified Eagle Medium including 10% fetal calf serum, 100 μg/ml streptomycin, and 250 ng/ml amphotericin B. Human keratinocytes are isolated from foreskin primary culture and cultured in Keratinocyte-SFM Medium supplemented with Bovine Pituitary Extract and EGF. All of these cells are incubated at 37° C. in a humidified incubator with 5% CO2 atmosphere.
(§2) Enzyme-linked immunoassay (ELISA) is performed to analyze the effect on the growth factor expression of skin cells treated with different 6-DG concentration (dissolved in DMSO). Firstly, 6-DG of different concentration is incubated in a 6-well culture dish with skin cells cultured in a conditioned medium for 24 hr. Supernant of the conditioned medium is collected for analyzing the concentration of TGF-β, VEGF, and PDGF-αβ following the directions provided by DuoSet ELISA development kits (R&D Systems, USA). With regard to whether DMSO has effect on the growth factor expression or not, skin cells treated with DMSO are used as a control.

PDGF-αβ [3] = test: as above; format: cell-based, human; details: 24 hr, medium supernatant, mean ± SD
Procedure: as §1, §2

VEGF [4] = test: as above; format: cell-based, human; details: 24 hr, medium supernatant, mean ± SD
Procedure: as §1, §2

TGF-β [5] = test: ELISA, growth factor expression in conditioned medium of keratinocytes; format: cell-based, human; details: 24 hr, medium supernatant, mean ± SD
Procedure: as §1, §2

PDGF-αβ [6] = test: as above; format: cell-based, human; details: 24 hr, medium supernatant, mean ± SD
Procedure: as §1, §2

VEGF [7] = test: as above; format: cell-based, human; details: 24 hr, medium supernatant, mean ± SD
Procedure: as §1, §2

human fibroblasts [8] = test: Proliferation of human fibroblasts with or without PMA (FIG. 5(A)); format: cell-based
human keratinocytes [9] = test: Migration of skin cells into wound area (scratch assay, TScratch); format: cell-based
Procedure: as §1
(§3) An assay disclosed in Process Biochemistry 2010; 45:1865-72 is performed to analyze the effect on migration of skin cells treated with different 6-DG concentration (dissolved in DMSO). 5×10^5 skin cells are seeded in a 12-well culture dish and grown to complete confluence. Prior to adding 6-DG of different concentration to the dish, a clean […] would area is created on the skin cells. The wound area is photographed using an inverted phase-contrast microscopy (TE2000-U; Nikon, Tokyo, Japan) equipped with NIS-Elements software (Nikon), and the skin cell migration in the wound area is calculated by the free software “TScratch” (www.cse-lab.ethz.ch/software.html). Considering whether DMSO has effect on the skin cell migration or not, skin cells treated with 0.5% DMSO are used as a control.

human fibroblasts [10] = test: as above; format: cell-based
Procedure: as §1, §3

TIMP-1 = test: Western blotting, human fibroblasts; format: cell-based
Procedure: (§4) Signal transduction of skin cells treated with 6-DG is studied. Firstly, 6-DG of different concentration is incubated with 1×10^6 human fibroblasts. After being incubated for 24 hr, the human fibroblasts are washed twice with phosphate-buffered saline (PBS), and then lysed by a lysis buffer containing 50 mM Tris-HCl, pH7.5, 137 mM sodium chloride, 1 mM EDTA, 1% Nonidet P-40, 10% glycerol, 0.1 mM sodium orthovanadate, 10 mM sodium pyrophosphate, 20 mM β-glycerophosphate, 50 mM sodium fluoride, 1 mM phenylmethysulfonyl fluoride, 2 mM leupeptin, and 2 μg/ml aprotinin. A cell extract having the lysed human fibroblasts is separated by a centrifugal force of 10,000 g at 4° C., and supernant of the cell extract is collected for determining protein concentration using Bicinchoninic acid protein assay kit (Pierce, Rockford, Ill., USA). Equal concentration of protein in the supernant is separated by SDS-PAGE, and then blotted to a PVDF membrane (PALL Life Science, Ann Arbor, Mich., USA). After being blocked for 1 hr in phosphate-buffered saline & tween (PBST) containing 5% non-fat milk, primary antibodies are added to the membrane. The membrane is washed with PBST twice, and next secondary antibodies against the primary antibodies are added to the membrane. Finally, signals on the membrane are visualized by enhanced chemiluminescence substrate (PerkinElmer, USA). As the description of “BACKGROUND OF THE INVENTION,” it is said that PMA, an activator for protein kinase C, phosphorylates JNK and ERK to produce MMP-1 and inhibits TIMP-1. For further confirming the effect on signal transduction of skin cells treated with 6-DG, the human fibroblasts are incubated with 20 ng/ml PMA prior to being treated with 6-DG.

MMP-1 [11] = test: Western blotting, human fibroblasts; format: cell-based; details: compared with cells only treated with PMA
Procedure: as §4

human keratinocytes [12] = test: MTT assay, proliferation of skin cells; format: cell-based; details: 24 hr, FIG. 2(B)
Procedure: as §1
(§5) 3-(4,5-cimethylthiazol-2-yl)-2,5-diphenyl tetrazolium bromide assay (MTT assay) is performed to analyze the effect on the proliferation of skin cells treated with different 6-DG concentration (dissolved in DMSO). Firstly, 6-DG of different concentration is seeded in a 96-well culture dish cultured with skin cells and incubated for 24 hr. MIT solution (5 mg/ml, dissolved in PBS) is added into the dish and incubated again at 37° C. for 2 hr. Medium in the dish is removed, 0.05 ml DMSO is added to the dish, and then the dish is shaken in a dark position for 20 min. Finally, the OD value of each well of the dish is calculated by 595 nm-wavelength light (UV-vis, BioTek, USA). Considering whether DMSO has effect on the skin cell proliferation or not, skin cells treated with DMSO are used as a control.

human fibroblasts [13] = test: MTT assay, proliferation of skin cells; format: cell-based; details: for proliferation of human fibroblasts compared with control: 24 hr, MTT, FIG. 2(A)
Procedure: as §1, §5

[14] = 20 ng/ml PMA prior to 6-DG, compared with PMA only
[15] = 6-DG, compared with untreated (control) and PMA only
[16] = skin cells (fibroblasts and keratinocytes), based on the volume of the composition

SMILES: CCCCCC(=O)/C=C(O)/C=C/c1ccc(O)c(OC)c1 [6-DG, 6-dehydrogingerdione]
- collagen expression level of fibroblasts (collagen; [14]): still have up-regulated expression of collagen
- collagen expression level per human fibroblast (collagen; [14]): still has up-regulated expression of collagen
- collagen expression level of fibroblasts (collagen; [15]): up-regulated expression of collagen
- collagen expression level per human fibroblast (collagen; [15]): up-regulated expression of collagen
- phosphorylation level of c-Jun and ERK (c-Jun and ERK; 20 ng/ml PMA prior to 6-DG): less phosphorylation level of c-Jun and ERK
- phosphorylation level of c-Jun and ERK (c-Jun and ERK; 6-DG): less phosphorylation level of c-Jun and ERK
- activity of MMP-1 (MMP-1 [1]; 20 ng/ml PMA prior to 6-DG, compared with fibroblasts only treated with PMA): lower activity of MMP-1
- activity of MMP-1 (MMP-1 [1]; 6-DG, compared with fibroblasts only treated with PMA): lower MMP-1 activity
- activity of MMP-1 (MMP-1 [1]; 6-DG, compared with fibroblasts untreated, FIGS. 6(A)-6(B)): no obvious difference
- TGF-β (TGF-β [2]; 6-DG 2 μM): 984.5 ± 21.6 pg/mL
- TGF-β (TGF-β [2]; 6-DG 10 μM): 1003.3 ± 24.0 pg/mL
- PDGF-αβ (PDGF-αβ [3]; 6-DG 2 μM): 7.1 ± 0.1 pg/mL
- PDGF-αβ (PDGF-αβ [3]; 6-DG 10 μM): 5.3 ± 0.1 pg/mL
- VEGF (VEGF [4]; 6-DG 2 μM): 432.0 ± 14.6 pg/mL
- VEGF (VEGF [4]; 6-DG 10 μM): 294.5 ± 14.6 pg/mL
- TGF-β (TGF-β [5]; 6-DG 2 μM): 822.8 ± 15.3 pg/mL
- TGF-β (TGF-β [5]; 6-DG 10 μM): 768.0 ± 9.6 pg/mL
- PDGF-αβ (PDGF-αβ [6]; 6-DG 2 μM): 5.84 ± 0.2 pg/mL
- PDGF-αβ (PDGF-αβ [6]; 6-DG 10 μM): 4.55 ± 0.1 pg/mL
- VEGF (VEGF [7]; 6-DG 2 μM): 344.3 ± 9.5 pg/mL
- VEGF (VEGF [7]; 6-DG 10 μM): 292.8 ± 7.3 pg/mL
- proliferation of fibroblasts (human fibroblasts [8]; [14]): still have obvious proliferation
- proliferation of fibroblasts (human fibroblasts [8]; [15]): obvious proliferation
- migration of human keratinocytes to the wound area (human keratinocytes [9]; 2 μM 6-DG for 24 hr): more obvious
- migration of human keratinocytes to the wound area (human keratinocytes [9]; 10 μM 6-DG, compared with 2 μM): less obvious than that after being treated with 2 μM
- migration of human keratinocytes to the wound area compared with control (human keratinocytes [9]; treated with 6-DG, FIGS. 3(C)-3(D)): obviously migrate to the wound area
- migration of human fibroblasts to the wound area (human fibroblasts [10]; 2 μM 6-DG for 24 hr): more obvious
- migration of human fibroblasts to the wound area (human fibroblasts [10]; 10 μM 6-DG, compared with 2 μM): less obvious than that after being treated with 2 μM
- effective concentration for promoting migration of skin cells (human fibroblasts [10]; [16]): 2 to 50 µM
- migration of human fibroblasts to the wound area compared with control (human fibroblasts [10]; treated with 6-DG, FIGS. 3(A)-3(B)): obviously migrate to the wound area
- expression of TIMP-1 (TIMP-1; 6-DG 24 hr, compared with fibroblasts untreated): up-regulate the expression of TIMP-1
- expression level of TIMP-1 (TIMP-1; 6-DG, compared with cells only treated with PMA): up-regulated expression level of TIMP-1
- expression level of MMP-1 (MMP-1 [11]; 20 ng/ml PMA prior to 6-DG): down-regulated expression level of MMP-1
- expression level of MMP-1 (MMP-1 [11]; 6-DG): down-regulated expression level of MMP-1
- proliferation of human keratinocytes compared with control (human keratinocytes [12]; 2 μM 6-DG): obviously proliferated
- proliferation of human keratinocytes compared with control (human keratinocytes [12]; 50 μM 6-DG): obviously proliferated
- proliferation of human keratinocytes compared with control (human keratinocytes [12]; 100 μM 6-DG): not obviously proliferated
- proliferation of human fibroblasts compared with control (human fibroblasts [13]; 2 μM 6-DG): obviously proliferated
- proliferation of human fibroblasts compared with control (human fibroblasts [13]; 50 μM 6-DG): obviously proliferated
- proliferation of human fibroblasts compared with control (human fibroblasts [13]; 100 μM 6-DG): not obviously proliferated
- effective concentration for promoting skin cell proliferation (human fibroblasts [13]; [16]): 2 to 50 µM

Source: patent US8772347B2, “Use of a pharmaceutical composition for promoting proliferation and/or migration of skin cells, and for improving wound healing in a subject” (Kaohsiung Medical University, priority 2011, dated 2014)
